Measured values reported in ChEMBL document CHEMBL1933004, “Novel (S)-1,2,3,4-tetrahydroisoquinoline-3-carboxylic acids: peroxisome proliferator-activated receptor γ selective agonists with protein-tyrosine phosphatase 1B inhibition” (Bioorg Med Chem, 2012).
pEC50, pIC50: −log10 of the molar value.

How the values were obtained:
Mus musculus [1] = experiment: Hypotriglyceridemic activity in diabetic KK-Ay mouse model assessed as decrease in triglyceride level at 3 mg/kg, po qd for 14 days (reference value: 819.9 +/- 135.5 mg/dl); format: functional
Rattus norvegicus [2] = experiment: Effect on hematocrit level in Sprague-Dawley rat at 50 mg/kg after 28 days (reference value: 47.5 +/- 0.6 %); format: functional
Rattus norvegicus [3] = experiment: Effect on hematocrit level in Sprague-Dawley rat at 100 mg/kg after 28 days (reference value: 47.5 +/- 0.6 %); format: functional
[4] = Cmax in Sprague-Dawley rat at 10 mg/kg after 0.5 to 8 hrs by HPLC analysis; format: ADME, organism-based; parameters: dose 10 mg/kg; conditions: in vivo
Rattus norvegicus [5] = experiment: Effect on RBC count in Sprague-Dawley rat at 12.5 mg/kg after 28 days (reference value: 832 +/- 25.2 x 10 ' 4/micro L); format: functional
Mus musculus [6] = experiment: Hypotriglyceridemic activity in diabetic KK-Ay mouse model assessed as decrease in triglyceride level at 30 mg/kg, po qd for 14 days (reference value: 819.9 +/- 135.5 mg/dl); format: functional
Rattus norvegicus [7] = experiment: Effect on RBC count in Sprague-Dawley rat at 50 mg/kg after 28 days (reference value: 832 +/- 25.2 x 10 ' 4/micro L); format: functional
[8] = molecular target: T1, Tyrosine-protein phosphatase non-receptor type 1 (Homo sapiens, UniProt P18031); experiment: Inhibition of PTB1B using pNPP as substrate after 30 mins
T1 sequence (P18031 whole entry): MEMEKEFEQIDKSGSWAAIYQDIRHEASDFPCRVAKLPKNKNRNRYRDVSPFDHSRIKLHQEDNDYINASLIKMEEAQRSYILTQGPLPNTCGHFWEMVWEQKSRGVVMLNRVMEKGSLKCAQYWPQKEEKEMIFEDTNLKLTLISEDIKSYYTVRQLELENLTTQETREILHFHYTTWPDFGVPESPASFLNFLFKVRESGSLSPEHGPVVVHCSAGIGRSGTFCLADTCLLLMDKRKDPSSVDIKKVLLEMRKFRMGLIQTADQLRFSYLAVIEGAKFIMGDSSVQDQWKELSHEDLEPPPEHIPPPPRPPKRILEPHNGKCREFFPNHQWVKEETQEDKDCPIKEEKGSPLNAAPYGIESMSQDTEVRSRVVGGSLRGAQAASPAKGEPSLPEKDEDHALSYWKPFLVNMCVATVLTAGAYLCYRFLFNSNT

[9] = molecular target: T2, Peroxisome proliferator-activated receptor alpha (Homo sapiens) (UniProt Q07869); experiment: Transactivation of human full length PPARalpha expressed in COS1 cells co-transfected with RXRalpha after 24 hrs by luciferase reporter gene assay relative to WY14643; format: cell-based; conditions: COS-1
T2 sequence (whole entry): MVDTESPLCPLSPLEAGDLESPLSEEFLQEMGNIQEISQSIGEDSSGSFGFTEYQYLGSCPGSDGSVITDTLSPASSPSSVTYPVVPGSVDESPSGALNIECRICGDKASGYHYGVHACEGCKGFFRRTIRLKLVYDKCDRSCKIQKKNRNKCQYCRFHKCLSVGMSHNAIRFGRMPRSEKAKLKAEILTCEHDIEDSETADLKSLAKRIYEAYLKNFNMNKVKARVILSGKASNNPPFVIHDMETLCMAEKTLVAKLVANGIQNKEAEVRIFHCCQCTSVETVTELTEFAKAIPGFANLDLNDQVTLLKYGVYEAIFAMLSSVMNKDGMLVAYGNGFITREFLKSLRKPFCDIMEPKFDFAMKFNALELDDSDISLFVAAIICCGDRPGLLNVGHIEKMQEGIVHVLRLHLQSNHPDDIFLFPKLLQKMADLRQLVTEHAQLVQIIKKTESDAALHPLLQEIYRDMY

Rattus norvegicus [10] = experiment: Effect on hematocrit level in Sprague-Dawley rat at 12.5 mg/kg after 28 days (reference value: 47.5 +/- 0.6 %); format: functional
Mus musculus [11] = experiment: Hypoglycemic activity in diabetic KK-Ay mouse model assessed as decrease in glucose level at 30 mg/kg, po qd for 14 days (reference value: 648.4 +/- 77.1 mg/dl); format: functional
Rattus norvegicus [12] = experiment: Effect on RBC count in Sprague-Dawley rat at 25 mg/kg after 28 days (reference value: 832 +/- 25.2 x 10 ' 4/micro L); format: functional
Mus musculus [13] = experiment: Hypotriglyceridemic activity in po dosed diabetic KK-Ay mouse model assessed as decrease in triglyceride level compound administered for 14 days; format: functional; conditions: for ED50: 336 h
Mus musculus [14] = experiment: Hypoglycemic activity in po dosed diabetic KK-Ay mouse model assessed as decrease in glucose level compound administered for 14 days; format: functional; conditions: for ED50: 336 h
Mus musculus [15] = experiment: Hypotriglyceridemic activity in diabetic KK-Ay mouse model assessed as decrease in triglyceride level at 10 mg/kg, po qd for 14 days (reference value: 819.9 +/- 135.5 mg/dl); format: functional
Mus musculus [16] = experiment: Hypoglycemic activity in diabetic KK-Ay mouse model assessed as decrease in glucose level at 10 mg/kg, po qd for 4 days relative to untreated control; format: functional; parameters: scale not given: the % may be the effect or the level left
Rattus norvegicus [17] = experiment: Effect on RBC count in Sprague-Dawley rat at 100 mg/kg after 28 days (reference value: 832 +/- 25.2 x 10 ' 4/micro L); format: functional
Mus musculus [18] = experiment: Hypoglycemic activity in diabetic KK-Ay mouse model assessed as decrease in glucose level at 10 mg/kg, po qd for 14 days (reference value: 648.4 +/- 77.1 mg/dl); format: functional
Mus musculus [19] = experiment: Hypoglycemic activity in diabetic KK-Ay mouse model assessed as decrease in glucose level at 3 mg/kg, po qd for 14 days (reference value: 648.4 +/- 77.1 mg/dl); format: functional
Rattus norvegicus [20] = experiment: Effect on hematocrit level in Sprague-Dawley rat at 25 mg/kg after 28 days (reference value: 47.5 +/- 0.6 %); format: functional
Rattus norvegicus [21] = experiment: Effect on RBC count in Sprague-Dawley rat at 100 mg/kg after 28 days (reference value: 862 +/- 21.5 x 10 ' 4/micro L); format: functional
Rattus norvegicus [22] = experiment: Effect on RBC count in Sprague-Dawley rat at 50 mg/kg after 28 days (reference value: 862 +/- 21.5 x 10 ' 4/micro L); format: functional
Rattus norvegicus [23] = experiment: Effect on RBC count in Sprague-Dawley rat at 25 mg/kg after 28 days (reference value: 862 +/- 21.5 x 10 ' 4/micro L); format: functional
Mus musculus [24] = experiment: Ratio of rosiglitazone ED50 to compound ED50 for po dosed diabetic KK-Ay mouse model; format: functional
[25] = molecular target: T3, Peroxisome proliferator-activated receptor gamma (Homo sapiens, UniProt P37231); experiment: Transactivation of human full length PPARgamma expressed in COS1 cells co-transfected with RXRalpha after 24 hrs by luciferase reporter gene assay; format: cell-based, COS-1
T3 sequence (P37231 whole entry): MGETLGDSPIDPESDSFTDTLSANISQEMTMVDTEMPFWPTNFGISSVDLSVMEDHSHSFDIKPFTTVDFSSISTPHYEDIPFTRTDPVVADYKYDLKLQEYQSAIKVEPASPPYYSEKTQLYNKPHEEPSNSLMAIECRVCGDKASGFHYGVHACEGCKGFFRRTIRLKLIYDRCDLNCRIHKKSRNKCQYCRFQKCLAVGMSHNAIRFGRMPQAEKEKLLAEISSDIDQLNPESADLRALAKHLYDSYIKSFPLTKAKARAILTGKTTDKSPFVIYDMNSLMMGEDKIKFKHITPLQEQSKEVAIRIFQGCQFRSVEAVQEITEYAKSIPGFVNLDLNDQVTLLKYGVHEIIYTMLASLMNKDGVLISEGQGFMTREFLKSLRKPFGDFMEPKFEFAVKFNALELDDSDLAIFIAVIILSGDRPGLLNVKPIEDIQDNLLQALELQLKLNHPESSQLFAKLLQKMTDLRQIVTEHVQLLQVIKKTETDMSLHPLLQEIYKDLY

[26] = molecular target: T4, Peroxisome proliferator-activated receptor gamma (Homo sapiens) (UniProt P37231); experiment: Transactivation of human full length PPARgamma expressed in COS1 cells co-transfected with RXRalpha after 24 hrs by luciferase reporter gene assay relative to farglitazar; format: cell-based; conditions: COS-1
T4 sequence (whole entry): T3 sequence (P37231 whole entry)

Rattus norvegicus [27] = experiment: Effect on hematocrit level in Sprague-Dawley rat at 50 mg/kg after 28 days (reference value: 49.4 +/- 0.4 %); format: functional
Rattus norvegicus [28] = experiment: Effect on hematocrit level in Sprague-Dawley rat at 12.5 mg/kg after 28 days (reference value: 49.4 +/- 0.4 %); format: functional
Rattus norvegicus [29] = experiment: Effect on RBC count in Sprague-Dawley rat at 12.5 mg/kg after 28 days (reference value: 862 +/- 21.5 x 10 ' 4/micro L); format: functional
Rattus norvegicus [30] = experiment: Effect on hematocrit level in Sprague-Dawley rat at 100 mg/kg after 28 days (reference value: 49.4 +/- 0.4 %); format: functional
Rattus norvegicus [31] = experiment: Effect on hematocrit level in Sprague-Dawley rat at 25 mg/kg after 28 days (reference value: 49.4 +/- 0.4 %); format: functional
[32] = molecular target: T4, Peroxisome proliferator-activated receptor gamma (Homo sapiens); experiment: Ratio of rosiglitazone EC50 to compound EC50 for human full length PPARgamma

| SMILES | Activity (Mus musculus [1]) [mg/dL] | Cmax [4] [µM] | Activity (Mus musculus [6]) [mg/dL] | pIC50 [8] | Emax [9] [%] | Activity (Mus musculus [11]) [mg/dL] | Activity (Mus musculus [13]) | ED50 (Mus musculus [13]) [mg/kg] | Activity (Mus musculus [14]) | ED50 (Mus musculus [14]) [mg/kg] | Activity (Mus musculus [15]) [mg/dL] | Activity (Mus musculus [16]) [%] | Activity (Mus musculus [18]) [mg/dL] | Activity (Mus musculus [19]) [mg/dL] | other results |
| --- | --- | --- | --- | --- | --- | --- | --- | --- | --- | --- | --- | --- | --- | --- | --- |
| CN(CCOc1ccc(CC2SC(=O)NC2=O)cc1)c1ccccn1 (stereo not drawn) [ROSIGLITAZONE] | 593.3 | 34.7 | 504.9 | < 4.52 | 105 | 320.6 | Dose-dependent effect | > 30 | Dose-dependent effect | 23 | 672.3 | 48 | 392.9 | 413.5 | Activity (Rattus norvegicus [2]): 43.1%; Activity (Rattus norvegicus [3]): 42.3%; Activity (Rattus norvegicus [5]): 791 ×10⁴ /uL; Activity (Rattus norvegicus [7]): 724 ×10⁴ /uL; Activity (Rattus norvegicus [10]): 46.3%; Activity (Rattus norvegicus [12]): 727 ×10⁴ /uL; Activity (Rattus norvegicus [17]): 679 ×10⁴ /uL; Activity (Rattus norvegicus [20]): 43.9% |
| C/C=C/C=C/C(=O)N1Cc2cc(OCCc3nc(/C=C/CCC(C)C)oc3C)ccc2C[C@H]1C(=O)O.CC(C)(C)N | 625.6 | 4.5 | 318.4 | 5.93 | < 50 | 252.5 | Dose-dependent effect | 6.2 | Dose-dependent effect | 4.3 | 243.8 | 55 | 273.7 | 385.2 | Activity (Rattus norvegicus [21]): 817 ×10⁴ /uL; Activity (Rattus norvegicus [22]): 835 ×10⁴ /uL; Activity (Rattus norvegicus [23]): 807 ×10⁴ /uL; Ratio ED50 (Mus musculus [24]): 5; pEC50 [25]: 7.52; Emax [26]: 98%; Activity (Rattus norvegicus [27]): 48.2%; Activity (Rattus norvegicus [28]): 49.7%; Activity (Rattus norvegicus [29]): 868 ×10⁴ /uL; Activity (Rattus norvegicus [30]): 47.8%; Activity (Rattus norvegicus [31]): 47.1%; Ratio EC50 [32]: 4 |
